Measured values from patent US5830770A, “Hapten-protein conjugates for use in detection of organophosphorus compounds” (priority 1993, dated 1998).
Read-outs that look alike come from different tables or passages of the source.

Legend:
[1] = system: antisera from rabbit 19; assay type: binding; design: key: +++: strong; ++: medium; +: weak reaction; poor: slight; -: none; settings: antisera 1:2000, 2 hours at 25° C.
Description: (§1) An ELISA was used to screen the antisera for polyclonal antibodies to the generic hapten/conjugate of the invention using the following protocol. Microtitre plates (Costar) were coated with the appropriate hapten conjugate with ovalbumin by diluting that in 0.05M sodium hydrogen carbonate/sodium carbonate buffer (pH 9.6) to give an optimum protein concentration of 1 μg/ml previously determined by chequerboard titration; protein found by Bradford assay. 100 μl was added to each microtitre plate well and the plates placed in a moist chamber overnight, washed 3 times with 0.15 phosphate buffered saline pH7.2 with 0.05% Tween 20[RTM]: PBST), and blotted dry. Blocking was carried out by adding 250 μl per well of 5% skimmed milk for 1 hour at 25° C.
(§2) After two further washings the coated microplates were stored at -20° C. until required, whereon they were washed once with PBST. Antisera were diluted (1/1000 for general screening or doubling dilutions up to 1/512,000 for titration assays) in PSBT, applied to microtitre wells in triplicate in 50 μl amounts and incubated in a moist chamber at 25° C. for 1 hour (appropriate positive and negative controls were included--PBST, negative rabbit serum and positive serum when it had been produced). Wells were then washed 3 times in PBST and 200 μl of a 1:1500 dilution of swine anti-rabbit immunoglobulin conjugated to horseradish peroxidase (DAKO) was added to each well. Plates were incubated once more for 1 hour at 25° C. then washed 3 times with PBST.
(§3) Tetramethylbenzidine (TMB) enzyme substrate solution was prepared by adding 400 μl of 6.0 g/l TMB in DMSO to 24.5 ml of 0.1M sodium acetate buffer pH5.5 with 100 μl of 1% H2 O2 and 100 μl added to the wells. The microplates were incubated for 15 minutes in the dark at 25° C. before the reaction was stopped by adding 50 μl of 2.5M H2 SO4 and the absorbance read at 450 nm against air. Results: are given below with those of Example 6.
(§4) Assay was carried out in the same manner as Example 5 with the following modifications. Antisera was diluted 1:2000 with 1% BSA in PBST and 100 μl was incubated for 2 hours at 25° C. with 100 μl of each concentration of the unconjugated OP--in this case the generic part--in a microtitration plate. Concentrations of OP ranged from 200 to 0.001 μg ml^-1.
(§5) Cross reactivity of antisera from rabbits 19, 20 and 21 by inhibition ELISA with the various organophosphorus pesticides is shown in Table 5 in which concentration (μg ml^-1) for 50% inhibition to occur is given together with the diluent in which this is achieved--PBST or % methanol in PBST for figures.

[2] = system: antisera from rabbit 21; assay type: binding; design: key: +++: strong; ++: medium; +: weak reaction; poor: slight; -: none; settings: antisera 1:2000, 2 hours at 25° C.
Description: as §1, §2, §3, §4, §5

[3] = system: antisera from rabbit 20; assay type: binding; design: key to cross reactivity by inhibition ELISA, Rabbit 20: +++: strong; ++: medium; +: weak reaction; poor: slight; -: none; settings: for concentration for 50% inhibition: Rabbit 20; for cross reactivity by inhibition ELISA, Rabbit 20: antisera 1:2000, 2 hours at 25° C.
Description: as §1, §2, §3, §4, §5

[4] = system: generic antibodies; assay: Relative inhibition of binding of generic antibodies to hapten conjugate; design: species or system rabbit; settings: inhibition at 100 μg/ml minus inhibition at 0.1 μg/ml organophosphate
Description: as §4

[5] = system: Rabbit 20 antisera; assay: Competitive/inhibition ELISA, antisera preincubated with OP for 2 hours, plate coated with 400 μg/ml OP-Ova; assay type: binding; settings: 2 hours at 25° C.
Description: as §1, §2, §3
(§6) This assay was carried out in the same manner as that of Example 5 with the following modifications. After plate coating the various dilutions of antisera were incubated with various concentrations of analyte solution for 1 to 2 hours at 25° C. or overnight at 4° C. Antiserum dilutions tested were 1/1000, 1/2000, 1/5000 and 1/10000 and the concentrations of the analyte ranged from 200 to 0.001 μg/ml. Coating of generic hapten-ovalbumin was at 1 μg/ml and later other coating strengths were tested ranging from 400 to 12.5 ng/ml. Note: cross reactivity in all cases was checked by carrying out an indirect ELISA where plates were coated with the blocking agents or BSA or ovalbumin at 1 μg/ml. Skimmed milk, foetal calf serum (both 5%), caesin (0.3%) or fish skin gelatin (0.5%) were selected as the blocking agent in this regard. Use of competitive assay is preferred for determining cross-reactivity.
(§7) 400 to 0.012 μg/ml conjugate for 200 to 0.001 μg/ml analyte detection.

[6] = system: antisera from rabbit 19; assay: Competitive/inhibition ELISA, antisera pre-incubated with unconjugated OP, 1 μg/ml OP-Ova; assay type: binding; settings: 1 hour at 25° C.
Description: as §1, §2, §3, §6, §7

[7] = system: antisera from rabbit 21; assay: as above; assay type: binding; settings: 1 hour at 25° C.
Description: as §1, §2, §3, §6, §7

[8] = system: antisera from rabbit 20; assay: as above; assay type: binding; settings: 1 hour at 25° C.
Description: as §1, §2, §3, §6, §7

COP(=O)(OC)OC=C(Cl)Cl [Dichlorvos, dichlorvos]
cross reactivity by inhibition ELISA, Rabbit 19 [1]: ++
cross reactivity by inhibition ELISA, Rabbit 21 [2]: +
concentration for 50% inhibition ([3]; diluent PBST): 91.1 µg/mL
cross reactivity by inhibition ELISA, Rabbit 20 [3]: ++
Relative inhibition of binding of generic antibodies to hapten conjugate as % of hapten + spacer inhibition [4]: 60.0%

COP(=S)(OC)OCCCCO [OP]
absorbance after preincubation with OP ([5]; antisera 1/1000, OP conc 0.001): 1.38
absorbance after preincubation with OP ([5]; antisera 1/1000, OP conc 0.01): 1.58
absorbance after preincubation with OP ([5]; antisera 1/1000, OP conc 0.1): 1.48
absorbance after preincubation with OP ([5]; antisera 1/1000, OP conc 1.0): 1.24
absorbance after preincubation with OP ([5]; antisera 1/1000, OP conc 10.0): 0.94
absorbance after preincubation with OP ([5]; antisera 1/1000, OP conc 20.0): 0.87
absorbance after preincubation with OP ([5]; antisera 1/1000, OP conc 100.0): 0.82
absorbance after preincubation with OP ([5]; antisera 1/1000, OP conc 200.0): 0.89
absorbance after preincubation with OP ([5]; antisera 1/2000, OP conc 0.001): 1.10
absorbance after preincubation with OP ([5]; antisera 1/2000, OP conc 0.01): 1.11
absorbance after preincubation with OP ([5]; antisera 1/2000, OP conc 0.1): 1.04
absorbance after preincubation with OP ([5]; antisera 1/2000, OP conc 1.0): 0.87
absorbance after preincubation with OP ([5]; antisera 1/2000, OP conc 10.0): 0.74
absorbance after preincubation with OP ([5]; antisera 1/2000, OP conc 20.0): 0.67
absorbance after preincubation with OP ([5]; antisera 1/2000, OP conc 100.0): 0.67
absorbance after preincubation with OP ([5]; antisera 1/2000, OP conc 200.0): 0.69
absorbance after pre-incubation with OP ([6]; OP 0.01 μg/ml): 1.83
absorbance after pre-incubation with OP ([6]; OP 0.1 μg/ml): 1.73
absorbance after pre-incubation with OP ([6]; OP 0.4 μg/ml): 1.66
absorbance after pre-incubation with OP ([6]; OP 3.1 μg/ml): 1.50
absorbance after pre-incubation with OP ([6]; OP 12.5 μg/ml): 1.36
absorbance after pre-incubation with OP ([6]; OP 50.0 μg/ml): 1.34
absorbance after pre-incubation with OP ([7]; OP 0.01 μg/ml): 1.52
absorbance after pre-incubation with OP ([7]; OP 0.1 μg/ml): 1.42
absorbance after pre-incubation with OP ([7]; OP 0.4 μg/ml): 1.45
absorbance after pre-incubation with OP ([7]; OP 3.1 μg/ml): 1.34
absorbance after pre-incubation with OP ([7]; OP 12.5 μg/ml): 1.02
absorbance after pre-incubation with OP ([7]; OP 50.0 μg/ml): 1.24
absorbance after pre-incubation with OP ([8]; OP 0.01 μg/ml): 1.95
absorbance after pre-incubation with OP ([8]; OP 0.1 μg/ml): 1.95
absorbance after pre-incubation with OP ([8]; OP 0.4 μg/ml): 1.81
absorbance after pre-incubation with OP ([8]; OP 3.1 μg/ml): 1.54
absorbance after pre-incubation with OP ([8]; OP 12.5 μg/ml): 1.31
absorbance after pre-incubation with OP ([8]; OP 50.0 μg/ml): 1.19

COP(=S)(OC)Oc1ccc([N+](=O)[O-])c(C)c1 [Fenitrothion, fenitrothion]
cross reactivity by inhibition ELISA, Rabbit 19 [1]: +
cross reactivity by inhibition ELISA, Rabbit 21 [2]: +
concentration for 50% inhibition ([3]; diluent 10% methanol in PBST): 4.8 µg/mL
cross reactivity by inhibition ELISA, Rabbit 20 [3]: +++
Relative inhibition of binding of generic antibodies to hapten conjugate as % of hapten + spacer inhibition [4]: 90.1%

COP(=S)(OC)OCCCCO [Hapten + spacer, (CH3 O)2 P(S)--O--(CH2)4 --OH]
cross reactivity by inhibition ELISA, Rabbit 19 [1]: +++
cross reactivity by inhibition ELISA, Rabbit 21 [2]: +++
concentration for 50% inhibition ([3]; diluent PBST): 3.0 µg/mL
cross reactivity by inhibition ELISA, Rabbit 20 [3]: +++
Relative inhibition of binding of generic antibodies to hapten conjugate as % of hapten + spacer inhibition [4]: 100.0%

COC(=O)/C(C)=C/OP(=S)(OC)OC [Methacrifos, methacrifos]
cross reactivity by inhibition ELISA, Rabbit 19 [1]: +
cross reactivity by inhibition ELISA, Rabbit 21 [2]: +
concentration for 50% inhibition ([3]; diluent PBST): 8.2 µg/mL
cross reactivity by inhibition ELISA, Rabbit 20 [3]: +++
Relative inhibition of binding of generic antibodies to hapten conjugate as % of hapten + spacer inhibition [4]: 89.1%

CCOc1cc(OP(=S)(OC)OC)nc(CC)n1 [Etrimfos, etrimfos]
cross reactivity by inhibition ELISA, Rabbit 19 [1]: -
cross reactivity by inhibition ELISA, Rabbit 21 [2]: poor
cross reactivity by inhibition ELISA, Rabbit 20 [3]: +
Relative inhibition of binding of generic antibodies to hapten conjugate as % of hapten + spacer inhibition [4]: 30.8%

O=C(O)CNCP(=O)(O)O [Glyphospate]
cross reactivity by inhibition ELISA, Rabbit 19 [1]: -
cross reactivity by inhibition ELISA, Rabbit 21 [2]: -
cross reactivity by inhibition ELISA, Rabbit 20 [3]: -
